Data reported in ChEMBL document CHEMBL1821574, “Structure-activity relationships of 4-position diamine quinoline methanols as intermittent preventative treatment (IPT) against Plasmodium falciparum” (J Med Chem, 2011).
Converted amounts (≈) assume the structure as drawn.

Assays:
Plasmodium falciparum [1] = experiment: Antimalarial activity against chloroquine-sensitive and mefloquine-resistant Plasmodium falciparum D6 by SYBR Green I-based fluorescence assay; format: functional
Plasmodium falciparum [2] = experiment: Antimalarial activity against chloroquine, mefloquine and pyrimethamine-resistant Plasmodium falciparum TM91C235 by SYBR Green I-based fluorescence assay; format: functional
[3] = Apparent permeability from apical to basolateral side of dog MDCK cells at 5 uM after 2 hrs by LC/MS/MS analysis; format: ADME, cell-based, Canis lupus familiaris

Cc1ccc(S(=O)(=O)N(CCN2CCCCC2)CC(O)c2cc(C(F)(F)F)nc3c(C(F)(F)F)cccc23)cc1 (configuration not stated) gave an IC90 (Plasmodium falciparum [1]) of 0.071 µg/mL (≈ 0.12 µM), an IC90 (Plasmodium falciparum [2]) of 0.214 µg/mL (≈ 0.363 µM) and a Papp A→B at 2 h, 5 µM [3] of 2.5 ×10⁻⁶ cm/s.
OC(CNCCN1CC2CCC1C2)c1cc(C(F)(F)F)nc2c(C(F)(F)F)cccc12 (configuration not stated) showed an IC90 (Plasmodium falciparum [1]) of 0.844 µg/mL (≈ 1.89 µM), an IC90 (Plasmodium falciparum [2]) of 0.972 µg/mL (≈ 2.17 µM) and a Papp A→B at 2 h, 5 µM [3] of 14.2 ×10⁻⁶ cm/s.
With CC(CN1CC2CCC1C2)NCC(O)c1cc(C(F)(F)F)nc2c(C(F)(F)F)cccc12 (configuration not stated) the IC90 (Plasmodium falciparum [1]) was 0.029 µg/mL (≈ 0.0628 µM), the IC90 (Plasmodium falciparum [2]) was 0.051 µg/mL (≈ 0.111 µM) and the Papp A→B at 2 h, 5 µM [3] was 18.8 ×10⁻⁶ cm/s.
Compound CC(C)(CN1CC2CCC1C2)NCC(O)c1cc(C(F)(F)F)nc2c(C(F)(F)F)cccc12 (configuration not stated) has an IC90 (Plasmodium falciparum [1]) of 0.093 µg/mL (≈ 0.196 µM), an IC90 (Plasmodium falciparum [2]) of 0.16 µg/mL (≈ 0.337 µM) and a Papp A→B at 2 h, 5 µM [3] of 25.1 ×10⁻⁶ cm/s.
With CN(CCN(C)CC(O)c1cc(C(F)(F)F)nc2c(C(F)(F)F)cccc12)CC(O)c1cc(C(F)(F)F)nc2c(C(F)(F)F)cccc12 (configuration not stated) the IC90 (Plasmodium falciparum [1]) was 0.329 µg/mL (≈ 0.468 µM) and the IC90 (Plasmodium falciparum [2]) was 0.375 µg/mL (≈ 0.534 µM).
Compound CNCCN(CC(O)c1cc(C(F)(F)F)nc2c(C(F)(F)F)cccc12)CC(O)c1cc(C(F)(F)F)nc2c(C(F)(F)F)cccc12 (configuration not stated) has an IC90 (Plasmodium falciparum [1]) of 0.022 µg/mL (≈ 0.032 µM), an IC90 (Plasmodium falciparum [2]) of 0.03 µg/mL (≈ 0.0436 µM) and a Papp A→B at 2 h, 5 µM [3] of 0.3 ×10⁻⁶ cm/s.
In the case of CN(C)CCN(CC(O)c1cc(C(F)(F)F)nc2c(C(F)(F)F)cccc12)CC(O)c1cc(C(F)(F)F)nc2c(C(F)(F)F)cccc12 (configuration not stated), the IC90 (Plasmodium falciparum [1]) is reported as over 0.5 µg/mL and the IC90 (Plasmodium falciparum [2]) is reported as over 0.5 µg/mL.
Compound CN(CCN)CC(O)c1cc(C(F)(F)F)nc2c(C(F)(F)F)cccc12 (configuration not stated) has an IC90 (Plasmodium falciparum [1]) of 0.344 µg/mL (≈ 0.902 µM), an IC90 (Plasmodium falciparum [2]) of 0.695 µg/mL (≈ 1.82 µM) and a Papp A→B at 2 h, 5 µM [3] of 4.9 ×10⁻⁶ cm/s.
For CNCCN(C)CC(O)c1cc(C(F)(F)F)nc2c(C(F)(F)F)cccc12 (configuration not stated), the IC90 (Plasmodium falciparum [1]) was 0.432 µg/mL (≈ 1.09 µM), the IC90 (Plasmodium falciparum [2]) was 0.755 µg/mL (≈ 1.91 µM) and the Papp A→B at 2 h, 5 µM [3] was 5.66 ×10⁻⁶ cm/s.
For NCCN(Cc1ccccc1)CC(O)c1cc(C(F)(F)F)nc2c(C(F)(F)F)cccc12 (configuration not stated), the IC90 (Plasmodium falciparum [1]) was 0.329 µg/mL (≈ 0.719 µM), the IC90 (Plasmodium falciparum [2]) was 0.289 µg/mL (≈ 0.632 µM) and the Papp A→B at 2 h, 5 µM [3] was 9.06 ×10⁻⁶ cm/s.
In the case of CC(C)N(CCN)CC(O)c1cc(C(F)(F)F)nc2c(C(F)(F)F)cccc12 (configuration not stated), the IC90 (Plasmodium falciparum [1]) is reported as 0.439 µg/mL (≈ 1.07 µM) and the IC90 (Plasmodium falciparum [2]) is reported as 0.627 µg/mL (≈ 1.53 µM).
Compound CC(CNC(C)(C)C)NCC(O)c1cc(C(F)(F)F)nc2c(C(F)(F)F)cccc12 (configuration not stated) has an IC90 (Plasmodium falciparum [1]) of 0.015 µg/mL (≈ 0.0343 µM), an IC90 (Plasmodium falciparum [2]) of 0.041 µg/mL (≈ 0.0937 µM) and a Papp A→B at 2 h, 5 µM [3] of 13.1 ×10⁻⁶ cm/s.
CC(CNC1CCCCC1)NCC(O)c1cc(C(F)(F)F)nc2c(C(F)(F)F)cccc12 (configuration not stated) showed an IC90 (Plasmodium falciparum [1]) of 0.026 µg/mL (≈ 0.0561 µM), an IC90 (Plasmodium falciparum [2]) of 0.082 µg/mL (≈ 0.177 µM) and a Papp A→B at 2 h, 5 µM [3] of 9.6 ×10⁻⁶ cm/s.
For CC(CNC1CCC1)NCC(O)c1cc(C(F)(F)F)nc2c(C(F)(F)F)cccc12 (configuration not stated), the IC90 (Plasmodium falciparum [1]) was 0.0014 µg/mL (≈ 0.00322 µM), the IC90 (Plasmodium falciparum [2]) was 0.0093 µg/mL (≈ 0.0214 µM) and the Papp A→B at 2 h, 5 µM [3] was 10.4 ×10⁻⁶ cm/s.
In the case of CC(CNC1CCCC1)NCC(O)c1cc(C(F)(F)F)nc2c(C(F)(F)F)cccc12 (configuration not stated), the IC90 (Plasmodium falciparum [1]) is reported as 0.03 µg/mL (≈ 0.0667 µM), the IC90 (Plasmodium falciparum [2]) is reported as 0.124 µg/mL (≈ 0.276 µM) and the Papp A→B at 2 h, 5 µM [3] is reported as 11.1 ×10⁻⁶ cm/s.
With OC(CNCCNc1ccccc1)c1cc(C(F)(F)F)nc2c(C(F)(F)F)cccc12 (configuration not stated) the IC90 (Plasmodium falciparum [1]) was 0.028 µg/mL (≈ 0.0631 µM), the IC90 (Plasmodium falciparum [2]) was 0.07 µg/mL (≈ 0.158 µM) and the Papp A→B at 2 h, 5 µM [3] was 13 ×10⁻⁶ cm/s.
NCCNCC(O)c1cc(C(F)(F)F)nc2c(C(F)(F)F)cccc12 (configuration not stated) gave an IC90 (Plasmodium falciparum [1]) of 0.988 µg/mL (≈ 2.69 µM), an IC90 (Plasmodium falciparum [2]) of 1.14 µg/mL (≈ 3.11 µM) and a Papp A→B at 2 h, 5 µM [3] of 3.1 ×10⁻⁶ cm/s.
For OC(CNCCN(C1CCCCC1)C1CCCCC1)c1cc(C(F)(F)F)nc2c(C(F)(F)F)cccc12 (configuration not stated), the IC90 (Plasmodium falciparum [1]) was 0.0093 µg/mL (≈ 0.0175 µM), the IC90 (Plasmodium falciparum [2]) was 0.022 µg/mL (≈ 0.0414 µM) and the Papp A→B at 2 h, 5 µM [3] was 24.7 ×10⁻⁶ cm/s.
Work on CC(C)NCCNCC(O)c1cc(C(F)(F)F)nc2c(C(F)(F)F)cccc12 (configuration not stated) yielded an IC90 (Plasmodium falciparum [1]) of 0.012 µg/mL (≈ 0.0293 µM), an IC90 (Plasmodium falciparum [2]) of 0.032 µg/mL (≈ 0.0782 µM) and a Papp A→B at 2 h, 5 µM [3] of 12.7 ×10⁻⁶ cm/s.
Compound OC(CNCCNC1CC1)c1cc(C(F)(F)F)nc2c(C(F)(F)F)cccc12 (configuration not stated) has an IC90 (Plasmodium falciparum [1]) of 0.041 µg/mL (≈ 0.101 µM), an IC90 (Plasmodium falciparum [2]) of 0.128 µg/mL (≈ 0.314 µM) and a Papp A→B at 2 h, 5 µM [3] of 2.8 ×10⁻⁶ cm/s.
With CC(C)(C)NCCNCC(O)c1cc(C(F)(F)F)nc2c(C(F)(F)F)cccc12 (configuration not stated) the IC90 (Plasmodium falciparum [1]) was 0.243 µg/mL (≈ 0.574 µM), the IC90 (Plasmodium falciparum [2]) was 0.504 µg/mL (≈ 1.19 µM) and the Papp A→B at 2 h, 5 µM [3] was 11.2 ×10⁻⁶ cm/s.
OC(CNCCNC1CCCC1)c1cc(C(F)(F)F)nc2c(C(F)(F)F)cccc12 (configuration not stated) gave an IC90 (Plasmodium falciparum [1]) of 0.11 µg/mL (≈ 0.253 µM), an IC90 (Plasmodium falciparum [2]) of 0.198 µg/mL (≈ 0.455 µM) and a Papp A→B at 2 h, 5 µM [3] of 3 ×10⁻⁶ cm/s.
In the case of OC(CNCCNC1CCCCC1)c1cc(C(F)(F)F)nc2c(C(F)(F)F)cccc12 (configuration not stated), the IC90 (Plasmodium falciparum [1]) is reported as 0.122 µg/mL (≈ 0.271 µM), the IC90 (Plasmodium falciparum [2]) is reported as 0.142 µg/mL (≈ 0.316 µM) and the Papp A→B at 2 h, 5 µM [3] is reported as 2.7 ×10⁻⁶ cm/s.
Work on CC(C)N(C)CCNCC(O)c1cc(C(F)(F)F)nc2c(C(F)(F)F)cccc12 (configuration not stated) yielded an IC90 (Plasmodium falciparum [1]) of 0.044 µg/mL (≈ 0.104 µM), an IC90 (Plasmodium falciparum [2]) of 0.079 µg/mL (≈ 0.187 µM) and a Papp A→B at 2 h, 5 µM [3] of 9.03 ×10⁻⁶ cm/s.
Work on OC(CNCCNC1CCC1)c1cc(C(F)(F)F)nc2c(C(F)(F)F)cccc12 (configuration not stated) yielded an IC90 (Plasmodium falciparum [1]) of 0.081 µg/mL (≈ 0.192 µM), an IC90 (Plasmodium falciparum [2]) of 0.138 µg/mL (≈ 0.327 µM) and a Papp A→B at 2 h, 5 µM [3] of 8.54 ×10⁻⁶ cm/s.
